Earlier results on 7 compounds are cited in PMC9781217, “Discovery of Novel and Selective G-Protein Coupled Receptor 120 (GPR120) Agonists for the Treatment of Type 2 Diabetes Mellitus” (Molecules, 2022).

The subject of data set [1] is GPR40. The arrangement: method as in ref 15-26 = [15]; PMID 22519963; doi:10.1021/jm300215x; 15. Shimpukade B. Hudson B.D. Hovgaard C.K. Milligan G. Ulven T. Discovery of a potent and selective GPR120 agonist J. Med. Chem. 2012 55 4511 4515 10.1021/jm300215x 22519963 || [16]; PMID 24881566; doi:10.1016/j.bmcl.2014.05.012; 16. Sparks S.M. Chen G. Collins J.L. Danger D. Dock S.T. Jayawickreme C. Jenkinson S. Laudeman C. Leesnitzer M.A. Liang X. Identification of diarylsulfonamides as agonists of the free fatty acid recep || [17]; PMID 27570890; doi:10.1021/acs.jmedchem.6b00685; 17. Azevedo C.M. Watterson K.R. Wargent E.T. Hansen S.V. Hudson B.D. Kepczynska M.A. Dunlop J. Shimpukade B. Christiansen E. Milligan G. Non-Acidic Free Fatty Acid Receptor 4 Agonists with Antidiabeti || [18]; PMID 27815121; doi:10.1016/j.bmcl.2016.10.054; 18. Lombardo M. Bender K. London C. Kirkland M. Mane J. Pachanski M. Geissler W. Cummings J. Habulihaz B. Akiyama T.E. Discovery of benzofuran propanoic acid GPR120 agonists: From uHTS hit to mechanis || [19]; PMID 28105282; doi:10.1021/acsmedchemlett.6b00394; 19. Adams G.L. Velazquez F. Jayne C. Shah U. Miao S. Ashley E.R. Madeira M. Akiyama T.E. Di Salvo J. Suzuki T. Discovery of Chromane Propionic Acid Analogues as Selective Agonists of GPR120 with in Vi. The conditions noted are these: cited from earlier work; for EC50: Figure 1, representative GPR120 agonists.

For data set [2], the system named is GPR120. Details: method as in ref 15-26 = [15]; PMID 22519963; doi:10.1021/jm300215x; 15. Shimpukade B. Hudson B.D. Hovgaard C.K. Milligan G. Ulven T. Discovery of a potent and selective GPR120 agonist J. Med. Chem. 2012 55 4511 4515 10.1021/jm300215x 22519963 || [16]; PMID 24881566; doi:10.1016/j.bmcl.2014.05.012; 16. Sparks S.M. Chen G. Collins J.L. Danger D. Dock S.T. Jayawickreme C. Jenkinson S. Laudeman C. Leesnitzer M.A. Liang X. Identification of diarylsulfonamides as agonists of the free fatty acid recep || [17]; PMID 27570890; doi:10.1021/acs.jmedchem.6b00685; 17. Azevedo C.M. Watterson K.R. Wargent E.T. Hansen S.V. Hudson B.D. Kepczynska M.A. Dunlop J. Shimpukade B. Christiansen E. Milligan G. Non-Acidic Free Fatty Acid Receptor 4 Agonists with Antidiabeti || [18]; PMID 27815121; doi:10.1016/j.bmcl.2016.10.054; 18. Lombardo M. Bender K. London C. Kirkland M. Mane J. Pachanski M. Geissler W. Cummings J. Habulihaz B. Akiyama T.E. Discovery of benzofuran propanoic acid GPR120 agonists: From uHTS hit to mechanis || [19]; PMID 28105282; doi:10.1021/acsmedchemlett.6b00394; 19. Adams G.L. Velazquez F. Jayne C. Shah U. Miao S. Ashley E.R. Madeira M. Akiyama T.E. Di Salvo J. Suzuki T. Discovery of Chromane Propionic Acid Analogues as Selective Agonists of GPR120 with in Vi. Conditions: Figure 1, representative GPR120 agonists; cited from earlier work.

Data set [3] has as its system human GPR120. The arrangement: method as in ref 15-27 = [15]; PMID 22519963; doi:10.1021/jm300215x; 15. Shimpukade B. Hudson B.D. Hovgaard C.K. Milligan G. Ulven T. Discovery of a potent and selective GPR120 agonist J. Med. Chem. 2012 55 4511 4515 10.1021/jm300215x 22519963 || [16]; PMID 24881566; doi:10.1016/j.bmcl.2014.05.012; 16. Sparks S.M. Chen G. Collins J.L. Danger D. Dock S.T. Jayawickreme C. Jenkinson S. Laudeman C. Leesnitzer M.A. Liang X. Identification of diarylsulfonamides as agonists of the free fatty acid recep || [17]; PMID 27570890; doi:10.1021/acs.jmedchem.6b00685; 17. Azevedo C.M. Watterson K.R. Wargent E.T. Hansen S.V. Hudson B.D. Kepczynska M.A. Dunlop J. Shimpukade B. Christiansen E. Milligan G. Non-Acidic Free Fatty Acid Receptor 4 Agonists with Antidiabeti || [18]; PMID 27815121; doi:10.1016/j.bmcl.2016.10.054; 18. Lombardo M. Bender K. London C. Kirkland M. Mane J. Pachanski M. Geissler W. Cummings J. Habulihaz B. Akiyama T.E. Discovery of benzofuran propanoic acid GPR120 agonists: From uHTS hit to mechanis || [19]; PMID 28105282; doi:10.1021/acsmedchemlett.6b00394; 19. Adams G.L. Velazquez F. Jayne C. Shah U. Miao S. Ashley E.R. Madeira M. Akiyama T.E. Di Salvo J. Suzuki T. Discovery of Chromane Propionic Acid Analogues as Selective Agonists of GPR120 with in Vi. Conditions: cited from earlier work.

For data set [4], the system named is hGPR40. The arrangement: method as in ref 15-26 = [15]; PMID 22519963; doi:10.1021/jm300215x; 15. Shimpukade B. Hudson B.D. Hovgaard C.K. Milligan G. Ulven T. Discovery of a potent and selective GPR120 agonist J. Med. Chem. 2012 55 4511 4515 10.1021/jm300215x 22519963 || [16]; PMID 24881566; doi:10.1016/j.bmcl.2014.05.012; 16. Sparks S.M. Chen G. Collins J.L. Danger D. Dock S.T. Jayawickreme C. Jenkinson S. Laudeman C. Leesnitzer M.A. Liang X. Identification of diarylsulfonamides as agonists of the free fatty acid recep || [17]; PMID 27570890; doi:10.1021/acs.jmedchem.6b00685; 17. Azevedo C.M. Watterson K.R. Wargent E.T. Hansen S.V. Hudson B.D. Kepczynska M.A. Dunlop J. Shimpukade B. Christiansen E. Milligan G. Non-Acidic Free Fatty Acid Receptor 4 Agonists with Antidiabeti || [18]; PMID 27815121; doi:10.1016/j.bmcl.2016.10.054; 18. Lombardo M. Bender K. London C. Kirkland M. Mane J. Pachanski M. Geissler W. Cummings J. Habulihaz B. Akiyama T.E. Discovery of benzofuran propanoic acid GPR120 agonists: From uHTS hit to mechanis || [19]; PMID 28105282; doi:10.1021/acsmedchemlett.6b00394; 19. Adams G.L. Velazquez F. Jayne C. Shah U. Miao S. Ashley E.R. Madeira M. Akiyama T.E. Di Salvo J. Suzuki T. Discovery of Chromane Propionic Acid Analogues as Selective Agonists of GPR120 with in Vi. The conditions noted are these: Figure 1; cited from earlier work.

Broadly, the EC50 is the concentration at which the effect is half-maximal. For the compound `CO[C@H]1C[C@H](Oc2cc(F)c(F)c(-c3ccc4c(c3)CC[C@H](CCC(=O)O)O4)c2)C1` [Compound 4], the results for the EC50 in data set [1] and in data set [2] were greater than 10000 nM and 35 nM, respectively.
`CO[C@H]1C[C@H](Oc2cc(F)c(F)c(-c3c(F)cc(OCCCC(=O)O)cc3F)c2)C1` [Compound 6]: the figures for the EC50 in data set [3] and in data set [4] were 93 nM and greater than 100000 nM, respectively.
With `Cc1ccc(-c2ccc(F)cc2COc2ccc(CC3SC(=O)NC3=O)c(Cl)c2)cc1` (stereo not shown) [Compound 8], the EC50 in data set [1] was 79000 nM; in data set [2] it was 76 nM.
As to `Cc1ccc(-n2nc(C)c3cnc(-c4ccc([C@H]5C[C@@H]5C(=O)O)cc4)cc32)nc1` [Compound 3], the EC50 is greater than 100000 nM in data set [1] and 740 nM in data set [2].
For `O=C(O)CCc1cc(F)c(OCc2c(-c3ccc(Cl)cc3F)nsc2C(F)(F)F)c(F)c1` [Compound 7], the EC50 is greater than 5000 nM in data set [1] and 42 nM in data set [2].
In the case of `O=C(O)CC1CCC2(CC1)CCN(c1cc(OC(F)(F)F)ccc1Cl)CC2` [Compound 2], the concentration for a half-maximal effect (EC50) in data set [1] is greater than 10000 nM.
For `O=S1(=O)c2ccccc2CN1c1cc(F)cc(Oc2ccccn2)c1` [Compound 5], the GPR40 activity result in data set [1] (at 100 μM, Figure 1) is given as “Inactive”. In data set [2], the EC50 was 123 nM.
